Patent US20040143009A1, “Amines, uses thereof” (L'OREAL, priority 2002, published 2004)

Key:
[1] = Antiwrinkle effect in vivo in humans
Text: (§1) This test is predictive of an antiwrinkle effect, as was verified by the applicant on diazepam, which is both active in vivo in humans and in this test at 10^−4 M.

[2] = system: rat-isolated phrenic nerve/diaphragm (striated muscle) preparation; test: Nerve/muscle (motor plate) junction model, isolated phrenic nerve/diaphragm preparation; settings: at 10^-4 M
Description: Compound 1 was tested on a nerve/muscle (motor plate) junction model obtained in a rat-isolated phrenic nerve/diaphragm (striated muscle) preparation (Pollard B. J. et al., Br. J. Anaesth., 1988, 61, 419-424).
as §1
The phrenic nerve and the diaphragm are carefully isolated and placed in a 50 ml tank filled with survival fluid (Krebs Henseleit fluid) kept at a temperature of 37° C. and oxygenated with an oxygen/CO2 (95/5) mixture.
Variations in the tension of the diaphragm are recorded with an initial preload of several grams.
After a relaxation period of 30 min, the diaphragm is indirectly stimulated by means of the phrenic nerve.
On each preparation, the effect of the test compound was evaluated on contractions induced by indirect stimulation via stimulation on the phrenic nerve (0.1 to 0.5 volts, 0.3 ms, 0.1 Hz). Alverine, known as a muscle-relaxing compound with antiwrinkle effect according to application FR-2 798 590, is used as control.

## CN1C(=O)CN=C(c2ccccc2)c2cc(Cl)ccc21 [diazepam]
[1]
  antiwrinkle activity in vivo in humans: active
[2]
  activity in the nerve/muscle junction test: active
